Data taken from patent US20260250257A1, “ANTIBACTERIAL AND SYNERGISTIC ACTIVE COMPOUND AND USE THEREOF” (EAST CHINA UNIVERSITY OF SCIENCE AND TECHNOLOGY, priority 2023, published 2026).
Values after ≈ are worked out from the molar mass of the structure shown.

Legend:
Type in all cases: cell-based
[1] = system: ATCC13883 strain (Klebsiella pneumoniae); test: Checkerboard antibacterial synergistic activity test with polymyxin E (FIC); set-up: key: FIC≤0.5 synergy; 0.5–1 additive; 1–2 indifferent; ≥2 antagonism; conditions: combined with polymyxin E
Method in brief: (§1)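 Broth checkerboard synergy with colistin; listed dilutions are working solutions, not final well levels. Overnight incubation, 16 h at 37° C.; FIC ≤0.5 denotes synergy, ≥2 antagonism.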

[2] = system: ATCC9027 strain (Pseudomonas aeruginosa); test: as above; set-up: key: FIC≤0.5 synergy; 0.5–1 additive; 1–2 indifferent; ≥2 antagonism; conditions: combined with polymyxin E
Method in brief: as §1

[3] = system: ATCC19606 strain (Acinetobacter baumannii); test: as above; set-up: key: FIC≤0.5 synergy; 0.5–1 additive; 1–2 indifferent; ≥2 antagonism; conditions: combined with polymyxin E
Method in brief: as §1

[4] = system: ATCC25922 strain (Escherichia coli); test: as above; set-up: key: FIC≤0.5 synergy; 0.5–1 additive; 1–2 indifferent; ≥2 antagonism; conditions: combined with polymyxin E
Method in brief: as §1

[5] = system: ATCC13883 strain (Klebsiella pneumoniae); test: Broth microdilution, antibacterial activity of the compound used alone
Text: (§2) The broth microdilution method was used to test the antibacterial effects of the compounds of the present invention against various Gram-negative bacterial strains when used alone.

[6] = system: ATCC9027 strain (Pseudomonas aeruginosa); test: as above
Text: as §2

[7] = system: ATCC19606 strain (Acinetobacter baumannii); test: as above
Text: as §2

[8] = system: ATCC25922 strain (Escherichia coli); test: as above
Text: as §2

SMILES | Synergistic activity (FIC value) ATCC13883 [1] | Synergistic activity (FIC value) ATCC9027 [2] | Synergistic activity (FIC value) ATCC19606 [3] | Synergistic activity (FIC value) ATCC25922 [4] | MIC ([5]; read-out: Antibacterial activity of the compound of Formula I, ATCC13883) [µg/mL] | MIC ([6]; read-out: Antibacterial activity of the compound of Formula I, ATCC9027) [µg/mL] | MIC ([7]; read-out: Antibacterial activity of the compound of Formula I, ATCC19606) [µg/mL] | MIC ([8]; read-out: Antibacterial activity of the compound of Formula I, ATCC25922) [µg/mL] | Antibacterial activity of the compound of Formula I, ATCC13883 [5] [µg/mL] | Antibacterial activity of the compound of Formula I, ATCC9027 [6] [µg/mL] | Antibacterial activity of the compound of Formula I, ATCC19606 [7] [µg/mL] | Antibacterial activity of the compound of Formula I, ATCC25922 [8] [µg/mL]
Cc1cc(C)c(-c2csc(N=C(N)N)n2)c(C)c1 [Compound I-51] | 1.25 | 1.25 | 1.25 | 0.5 | 256 (≈ 983 µM) | 256 (≈ 983 µM) | 256 (≈ 983 µM) | 256 (≈ 983 µM) |  |  |  | 
O=[N+]([O-])c1cc(-c2nc(N=C3NCCCN3)sc2Br)ccc1Br [Compound I-176] | 0.31 | 0.53 | 0.13 | 0.38 |  |  |  |  | 256 | 256 | 256 | 256
O=C(Nc1cccc(-c2coc(N=C3NCCCN3)n2)c1)Nc1ccc(Cl)cc1Cl [Compound I-200] | 0.53 | 0.53 | 0.25 | 1.25 |  |  |  |  | 256 | 256 | 256 | 256
CC(C)(C)c1cc(-c2csc(N=C(N)N)n2)cc(C(C)(C)C)c1 [Compound I-13] | 0.33 | 0.62 | 0.15 | 0.39 |  |  |  |  | 256 | 256 | 256 | 256
NC(N)=Nc1nc(-c2ccc3c(c2)COc2c-3ccc3c2C(=O)CCC3)cs1 [Compound I-119] | 0.19 | 1.25 | 1.25 | 1.25 |  |  |  |  | 256 | 256 | 256 | 256
CC(C)c1cccc(-c2c[nH]c(N=C(N)N)n2)c1 [Compound I-16] | 0.25 | 0.63 | 0.3 | 0.5 |  |  |  |  | 256 | 256 | 256 | 256
CCOC(=O)c1ccc(-c2c[nH]c(N=C(N)N)n2)cc1 [Compound I-25] | 0.31 | 0.53 | 0.13 | 0.38 |  |  |  |  | 256 | 256 | 256 | 256
Cc1sc(N=C(N)N)nc1-c1cccc2ccoc12 [Compound I-70] | 1.25 | 1.25 | 0.26 | 1.25 |  |  |  |  | 256 | 256 | 256 | 256
NC(N)=Nc1nc(-c2cc(Cl)cc(Cl)c2)cs1 [Compound I-39] | 1.25 | 1.25 | 0.75 | 1.25 |  |  |  |  | 128 | 64 | 256 | 128
C[Si](C)(C)c1ccc(-c2csc(N=C(N)N)n2)cc1 [Compound I-22] | 0.38 | 0.63 | 0.75 | 0.5 |  |  |  |  | 256 | 256 | 256 | 256
NC(N)=Nc1nc(-c2cccc(Oc3ccc(N4CCOCC4)cc3)c2)cs1 [Compound I-105] | 1.25 | 0.51 | 1.25 | 1.25 |  |  |  |  | 256 | 256 | 256 | 256
NC(N)=Nc1nc(-c2ccc(Cl)cc2)cs1 [Compound I-38] | 0.25 | 0.63 | 0.28 | 0.5 |  |  |  |  | 256 | 256 | 256 | 256
Cc1ccc(O)c(-c2c[nH]c(N=C3NCCCN3)n2)c1 [Compound I-170] | 0.31 | 0.31 | 0.12 | 0.38 |  |  |  |  | 256 | 256 | 256 | 256
Oc1c(Br)cc(-c2coc(N=C3NCCCN3)n2)cc1Br [Compound I-178] | 1.25 | 1.25 | 0.51 | 1.25 |  |  |  |  | 256 | 256 | 256 | 256
NC(N)=Nc1nc(-c2ccc(Oc3ccccc3)cc2)cs1 [Compound I-3] | 1.25 | 1.25 | 1.25 | 0.5 |  |  |  |  | 256 | 256 | 256 | 256
